The values below are quoted from earlier work in US20090304869A1, “Peptides Having an Ace Inhibiting Effect” (priority 2005, published 2009).

Each structure is given as a SMILES string.

In one data set the target is ACE (Homo sapiens, UniProt P12821). The note with it: peptides in fermented milk products.
For data set [1] the following is noted: in sour milk, hypertensive humans.

ACE, sequence (P12821 30-1306, species assumed): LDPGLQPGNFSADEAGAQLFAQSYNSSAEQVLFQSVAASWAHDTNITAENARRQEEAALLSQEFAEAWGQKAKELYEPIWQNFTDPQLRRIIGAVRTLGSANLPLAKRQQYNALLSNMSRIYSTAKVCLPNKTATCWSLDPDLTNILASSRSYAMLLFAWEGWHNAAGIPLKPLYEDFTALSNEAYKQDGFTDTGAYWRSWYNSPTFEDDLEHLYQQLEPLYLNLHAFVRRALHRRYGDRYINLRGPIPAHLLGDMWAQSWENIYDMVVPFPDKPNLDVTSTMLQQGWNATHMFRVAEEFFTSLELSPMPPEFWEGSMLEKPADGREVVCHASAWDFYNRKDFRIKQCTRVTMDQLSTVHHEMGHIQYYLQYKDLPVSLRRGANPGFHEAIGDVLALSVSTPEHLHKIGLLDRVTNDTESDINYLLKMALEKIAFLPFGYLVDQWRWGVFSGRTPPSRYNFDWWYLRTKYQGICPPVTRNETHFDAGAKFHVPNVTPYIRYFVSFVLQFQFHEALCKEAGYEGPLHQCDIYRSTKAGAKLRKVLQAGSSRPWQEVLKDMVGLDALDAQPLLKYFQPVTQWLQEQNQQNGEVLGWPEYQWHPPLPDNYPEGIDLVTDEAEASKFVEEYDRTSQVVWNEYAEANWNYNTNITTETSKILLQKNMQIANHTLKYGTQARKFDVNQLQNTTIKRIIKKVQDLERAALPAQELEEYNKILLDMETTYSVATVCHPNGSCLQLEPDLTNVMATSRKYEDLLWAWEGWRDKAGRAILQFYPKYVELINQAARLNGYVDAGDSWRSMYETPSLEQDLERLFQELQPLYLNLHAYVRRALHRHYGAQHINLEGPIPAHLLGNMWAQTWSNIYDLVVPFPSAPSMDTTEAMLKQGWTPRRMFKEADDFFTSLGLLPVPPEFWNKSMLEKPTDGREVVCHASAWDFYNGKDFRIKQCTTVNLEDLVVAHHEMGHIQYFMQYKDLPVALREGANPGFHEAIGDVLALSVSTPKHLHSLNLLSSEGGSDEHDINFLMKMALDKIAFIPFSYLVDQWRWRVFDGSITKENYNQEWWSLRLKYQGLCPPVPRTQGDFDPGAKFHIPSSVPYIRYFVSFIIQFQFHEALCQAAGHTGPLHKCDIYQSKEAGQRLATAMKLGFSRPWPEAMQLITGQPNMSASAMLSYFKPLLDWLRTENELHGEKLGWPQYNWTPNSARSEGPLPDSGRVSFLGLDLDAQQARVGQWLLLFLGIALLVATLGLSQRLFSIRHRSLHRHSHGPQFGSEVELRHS

As for `CC[C@H](C)[C@H](N)C(=O)N1CCC[C@H]1C(=O)N1CCC[C@H]1C(=O)O` [IPP], at ACE, the “in vitro ACE inhibition” value was “showed in vitro ACE inhibition”. Also, the “blood pressure lowering effect” value in data set [1] is listed as “blood pressure lowering effect”.
